Measured values reported in patent US8283361B2 (AstraZeneca AB, priority 2008, dated 2012).
Like-named read-outs stand apart in the source and are kept apart here.

Biological target: S. aureus GyrB ATPase (Staphylococcus aureus, UniProt P0A0K8)
Experiment: biochemical
Conditions: read-out: % Inhibition of S. aureus GyrB ATPase
Description: S. aureus GyrB ATPase Inhibition Activity: Compounds may be tested for inhibition of S. aureus GyrB ATPase activity using an ammonium molybdate/malachite green-based phosphate detection assay (Lanzetta, P. A., L. J. Alvarez, P. S. Reinach, and O. A. Candia, 1979, 100: 95-97). Assays can be performed in multiwell plates in 30 μl reactions containing: 50 mM Hepes buffer pH 7.5, 75 mM ammonium acetate, 8.0 mM magnesium chloride, 0.5 mM ethylenediaminetetraacetic acid, 5% glycerol, 1.0 mM 1,4-Dithio-DL-threitol, 200 nM bovine serum albumin, 1.0 μg/m1 sheared salmon sperm DNA, 250 pM E. coli GyrA, 250 pM S. aureus GyrB, 250 μM ATP, and compound in dimethylsulfoxide. Reactions can be quenched with 30 μl of ammonium molybdate/malachite green detection reagent containing 1.2 mM malachite green hydrochloride, 8.5 mM ammonium molybdate tetrahydrate, and 1 M hydrochloric acid. […] An IC50 measurement of compound potency for each compound can be determined from reactions performed in the presence of 10 different compound concentrations.

[1] = compound at 1 μM, one value per test if tested more than once

Chain of S. aureus GyrB ATPase (P0A0K8 whole entry): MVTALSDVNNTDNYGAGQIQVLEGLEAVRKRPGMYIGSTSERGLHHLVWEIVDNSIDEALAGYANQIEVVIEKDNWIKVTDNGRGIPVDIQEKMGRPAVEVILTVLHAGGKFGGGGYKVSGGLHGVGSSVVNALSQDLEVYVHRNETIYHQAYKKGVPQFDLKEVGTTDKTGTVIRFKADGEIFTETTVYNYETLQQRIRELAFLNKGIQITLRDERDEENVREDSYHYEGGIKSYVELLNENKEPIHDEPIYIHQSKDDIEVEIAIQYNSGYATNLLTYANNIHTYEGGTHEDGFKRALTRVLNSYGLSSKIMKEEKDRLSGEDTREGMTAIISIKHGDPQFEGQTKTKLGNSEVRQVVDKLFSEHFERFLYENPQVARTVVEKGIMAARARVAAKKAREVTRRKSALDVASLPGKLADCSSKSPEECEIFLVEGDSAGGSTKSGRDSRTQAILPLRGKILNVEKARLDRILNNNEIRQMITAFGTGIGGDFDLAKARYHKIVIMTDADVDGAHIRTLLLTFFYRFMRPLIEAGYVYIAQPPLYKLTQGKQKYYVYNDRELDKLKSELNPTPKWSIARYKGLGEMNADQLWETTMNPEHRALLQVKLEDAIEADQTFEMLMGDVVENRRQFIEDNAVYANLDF
Chain of S. aureus GyrB ATPase (P0AES4 whole entry, further chain): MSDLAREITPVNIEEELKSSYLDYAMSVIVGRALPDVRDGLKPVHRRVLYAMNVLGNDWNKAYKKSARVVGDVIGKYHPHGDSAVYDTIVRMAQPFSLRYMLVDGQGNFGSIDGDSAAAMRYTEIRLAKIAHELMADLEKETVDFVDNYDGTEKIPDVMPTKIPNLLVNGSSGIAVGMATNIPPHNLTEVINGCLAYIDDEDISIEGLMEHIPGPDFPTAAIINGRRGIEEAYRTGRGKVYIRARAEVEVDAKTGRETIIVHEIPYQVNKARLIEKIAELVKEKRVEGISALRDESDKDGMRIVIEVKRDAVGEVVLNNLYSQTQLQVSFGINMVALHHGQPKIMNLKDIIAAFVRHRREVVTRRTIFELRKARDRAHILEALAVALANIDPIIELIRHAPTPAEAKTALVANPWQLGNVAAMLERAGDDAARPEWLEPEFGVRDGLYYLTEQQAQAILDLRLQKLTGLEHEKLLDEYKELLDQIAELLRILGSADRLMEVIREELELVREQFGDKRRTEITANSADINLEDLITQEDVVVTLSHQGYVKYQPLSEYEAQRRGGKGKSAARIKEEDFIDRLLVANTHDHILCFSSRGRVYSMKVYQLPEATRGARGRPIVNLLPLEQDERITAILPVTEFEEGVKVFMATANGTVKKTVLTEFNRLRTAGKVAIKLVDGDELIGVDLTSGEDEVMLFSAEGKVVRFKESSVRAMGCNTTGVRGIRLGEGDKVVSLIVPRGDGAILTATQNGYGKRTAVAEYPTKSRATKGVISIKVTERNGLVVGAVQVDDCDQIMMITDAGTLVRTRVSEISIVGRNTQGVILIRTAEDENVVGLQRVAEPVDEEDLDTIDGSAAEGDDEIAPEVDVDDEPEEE

## CCNC(=O)Nc1cc(-c2nc(C(F)(F)F)cs2)c(-c2ccc3c(=O)c(C(=O)NCCO)cn(CCC(C)C)c3c2)cn1 [Example 336, 7-{6-[(ethylcarbamoyl)amino]-4-[4-(trifluoromethyl)-1,3-thiazol-2-yl]pyridin-3-yl}-N-(2-hydroxyethyl)-1-(3-methylbutyl)-4-oxo-1,4-dihydroquinoline-3-carboxamide]
[1]
  inhibition at 1 µM: 109%

## CCNC(=O)Nc1cc(-c2nc(C(F)(F)F)cs2)c(-c2ccc3c(=O)c(C(=O)NCCN4CCOCC4)cn(CC4CC4)c3c2)cn1 [Example 378, 1-(Cyclopropylmethyl)-7-{6-[(ethylcarbamoyl)amino]-4-[4-(trifluoromethyl)-1,3-thiazol-2-yl]pyridin-3-yl}-N-[2-(morpholin-4-yl)ethyl]-4-oxo-1,4-dihydroquinoline-3-carboxamide]
[1]
  inhibition at 1 µM: 107%

## CCNC(=O)Nc1cc(-c2nc(C(F)(F)F)cs2)c(-c2ccc3c(=O)c(C(=O)NCCN4CCN(C)CC4)cn(CCO)c3c2)cn1 [Example 368, 7-{6-[(Ethylcarbamoyl)amino]-4-[4-(trifluoromethyl)-1,3-thiazol-2-yl]pyridin-3-yl}-1-(2-hydroxyethyl)-N-[2-(4-methylpiperazin-1-yl)ethyl]-4-oxo-1,4-dihydroquinoline-3-carboxamide]
[1]
  inhibition at 1 µM: 87%

## CCNC(=O)Nc1cc(-c2nc(C(F)(F)F)cs2)c(-c2ccc3c(c2)c(=O)c(C(=O)N2CCNCC2)cn3C(COC)COC)cn1 [Example 140, 1-{5-[1-(1,3-dimethoxypropan-2-yl)-4-oxo-3-(piperazin-1-ylcarbonyl)-1,4-dihydroquinolin-6-yl]-4-[4-(trifluoromethyl)-1,3-thiazol-2-yl]pyridin-2-yl}-3-ethylurea]
[1]
  inhibition at 1 µM: 95%

## CCCNC(=O)Nc1cc(-c2nc(C(F)(F)F)cs2)c(-c2ccc3c(c2)c(=O)c(C(=O)O)cn3C2CN(C)C2)cn1 [Example 153, 1-(1-methylazetidin-3-yl)-4-oxo-6-(6-(3-propylureido)-4-(4-(trifluoromethyl)thiazol-2-yl)pyridin-3-yl)-1,4-dihydroquinoline-3-carboxylic acid]
[1]
  inhibition at 1 µM: 105%

## CCCNC(=O)Nc1cc(-c2nc(C(F)(F)F)cs2)c(-c2ccc3c(c2)c(=O)c(C(=O)N2CCN(C(C)=O)CC2)cn3C2CN(C)C2)cn1 [Example 168, 1-(5-(3-(4-acetylpiperazine-1-carbonyl)-1-(1-methylazetidin-3-yl)-4-oxo-1,4-dihydroquinolin-6-yl)-4-(4-(trifluoromethyl)thiazol-2-yl)pyridin-2-yl)-3-propylurea]
[1]
  inhibition at 1 µM: 102%

## CCNC(=O)Nc1cc(-c2nc(C(F)(F)F)cs2)c(-c2ccc3c(=O)c(C(=O)NCCN(C)C)cn(CC)c3c2)cn1 [Example 332, N-[2-(dimethylamino)ethyl]-1-ethyl-7-{6-[(ethylcarbamoyl)amino]-4-[4-(trifluoromethyl)-1,3-thiazol-2-yl]pyridin-3-yl}-4-oxo-1,4-dihydroquinoline-3-carboxamide]
[1]
  inhibition at 1 µM: 109%

## CCNC(=O)Nc1cc(-c2nc(C(F)(F)F)cs2)c(-c2ccc3c(c2)c(=O)c(C(=O)O)cn3CC2COCCN2)cn1 (centres unmarked) [Example 293]
[1]
  inhibition at 1 µM: 106%

## CCNC(=O)Nc1cc(-c2nc(C(F)(F)F)cs2)c(-c2ccc3c(=O)c(C(=O)NCCCO)cn(CC4CC4)c3c2)cn1 [Example 376, 1-(Cyclopropylmethyl)-7-{6-[(ethylcarbamoyl)amino]-4-[4-(trifluoromethyl)-1,3-thiazol-2-yl]pyridin-3-yl}-N-(3-hydroxypropyl)-4-oxo-1,4-dihydroquinoline-3-carboxamide]
[1]
  inhibition at 1 µM: 108%

## CCNC(=O)Nc1cc(-c2nc(C(F)(F)F)cs2)c(-c2ccc3c(c2)c(=O)c(C(=O)O)cn3C2CCOCC2)cn1 [Example 321, 6-(6-(3-Ethylureido)-4-(4-(trifluoromethyl)thiazol-2-yl)-pyridin-3-yl)-4-oxo-1-(tetrahydro-2H-pyran-4-yl)-1,4dihydroquinoline-3-carboxylic acid]
[1]
  inhibition at 1 µM: 100%

## CCNC(=O)Nc1cc(-c2nc(C(F)(F)F)cs2)c(-c2ccc3c(=O)c(C(=O)NC)cn(CC4CC4)c3c2)cn1 [Example 374, 1-(Cyclopropylmethyl)-7-{6-[(ethylcarbamoyl)amino]-4-[4-(trifluoromethyl)-1,3-thiazol-2-yl]pyridin-3-yl}-N-methyl-4-oxo-1,4-dihydroquinoline-3-carboxamide]
[1]
  inhibition at 1 µM: 86%

## CCNC(=O)Nc1cc(-c2nc(C(F)(F)F)cs2)c(-c2ccc3c(c2)c(=O)c(C(=O)O)cn3CCCN2CCCC2=O)cn1 [Example 7, 6-(6-(3-ethylureido)-4-(4-(trifluoromethyl)thiazol-2-yl)pyridin-3-yl)-4-oxo-1-(3-(2-oxopyrrolidin-1-yl)propyl)-1,4-dihydroquinoline-3-carboxylic acid sodium]
  inhibition at 1 µM: 100%

## CCNC(=O)Nc1cc(-c2nc(C(F)(F)F)cs2)c(-c2ccc3c(c2)c(=O)c(C(=O)O)cn3CCN(C)C)cn1 [Example 18, 1-(2-(dimethylamino)ethyl)-6-(6-(3-ethylureido)-4-(4-(trifluoromethyl)thiazol-2-yl)pyridin-3-yl)-4-oxo-1,4-dihydroquinoline-3-carboxylic acid]
[1]
  inhibition at 1 µM: 98%

## CCNC(=O)Nc1cc(-c2nc(C(F)(F)F)cs2)c(-c2ccc3c(c2)c(=O)c(C(=O)O)cn3CC2CCN(CC3CCCO3)C2)cn1 (centres unmarked) [Example 307, 6-(6-(3-ethylureido)-4-(4-(trifluoromethyl)thiazol-2-yl)pyridin-3-yl)-4-oxo-1-((1-((tetrahydrofuran-2-yl)methyl)pyrrolidin-3-yl)methyl)-1,4-dihydroquinoline-3-carboxylic acid]
[1]
  inhibition at 1 µM: 105%

## CCNC(=O)Nc1cc(-c2nc(C(F)(F)F)cs2)c(-c2ccc3c(c2)c(=O)c(C(=O)O)cn3[C@H](CO)CC(C)C)cn1 [Example 83, (S)-6-(6-(3-ethylureido)-4-(4-(trifluoromethyl)thiazol-2-yl)pyridin-3-yl)-1-(1-hydroxy-4-methylpentan-2-yl)-4-oxo-1,4-dihydroquinoline-3-carboxylic acid]
[1]
  inhibition at 1 µM: 96%

## CCNC(=O)Nc1cc(-c2nc(C(F)(F)F)cs2)c(-c2ccc3c(c2)c(=O)c(C(=O)NC)cn3C(COC)COC)cn1 [Example 129, 1-(1,3-dimethoxypropan-2-yl)-6-(6-(3-ethylureido)-4-(4-(trifluoromethyl)thiazol-2-yl)pyridin-3-yl)-N-methyl-4-oxo-1,4-dihydroquinoline-3-carboxamide]
[1]
  inhibition at 1 µM: 93%

## CCNC(=O)Nc1cc(-c2nc(C(F)(F)F)cs2)c(-c2ccc3c(c2)c(=O)c(C(=O)O)cn3C[C@@H]2CCCO2)cn1 [Example 88, (S)-6-(6-(3-ethylureido)-4-(4-(trifluoromethyl)thiazol-2-yl)pyridin-3-yl)-4-oxo-1-((tetrahydrofuran-2-yl)methyl)-1,4-dihydroquinoline-3-carboxylic acid]
[1]
  inhibition at 1 µM: 90%

## CCCn1cc(C(=O)NCCN2CCN(C)CC2)c(=O)c2ccc(-c3cnc(NC(=O)NCC)cc3-c3nc(C(F)(F)F)cs3)cc21 [Example 352, 7-{6-[(Ethylcarbamoyl)amino]-4-[4-(trifluoromethyl)-1,3-thiazol-2-yl]pyridin-3-yl}-N-[2-(4-methylpiperazin-1-yl)ethyl]-4-oxo-1-propyl-1,4-dihydroquinoline-3-carboxamide]
[1]
  inhibition at 1 µM: 88%

## CCNC(=O)Nc1cc(-c2nc(C(F)(F)F)cs2)c(-c2ccc3c(c2)c(=O)c(C(=O)O)cn3CCCOC)cn1 [Example 12, 6-(6-(3-ethylureido)-4-(4-(trifluoromethyl)thiazol-2-yl)pyridin-3-yl)-1-(3-methoxypropyl)-4-oxo-1,4-dihydroquinoline-3-carboxylic acid]
[1]
  inhibition at 1 µM: 93%

## CCNC(=O)Nc1cc(-c2nc(C(F)(F)F)cs2)c(-c2ccc3c(c2)c(=O)c(C(=O)O)cn3[C@H]2CCCC[C@@H]2N)cn1 [Example 314, 1-((1S,2S)-2-aminocyclohexyl)-6-(6-(3-ethylureido)-4-(4-(trifluoromethyl)thiazol-2-yl)pyridin-3-yl)-4-oxo-1,4-dihydroquinoline-3-carboxylic acid]
[1]
  inhibition at 1 µM: 114%

## CCNC(=O)Nc1cc(-c2nc(C(F)(F)F)cs2)c(-c2ccc3c(c2)c(=O)c(C(=O)N2CCN(C(C)=O)CC2)cn3C2CN(C)C2)cn1 [Example 169, 1-(5-(3-(4-acetylpiperazine-1-carbonyl)-1-(1-methylazetidin-3-yl)-4-oxo-1,4-dihydroquinolin-6-yl)-4-(4-(trifluoromethyl)thiazol-2-yl)pyridin-2-yl)-3-ethylurea]
[1]
  inhibition at 1 µM: 105%

## CCNC(=O)Nc1cc(-c2nc(C(F)(F)F)cs2)c(-c2ccc3c(c2)c(=O)c(C(=O)O)cn3[C@@H]2CCCC[C@@H]2O)cn1 (relative stereo) [Example 276, 6-(6-(3-ethylureido)-4-(4-(trifluoromethyl)thiazol-2-yl)pyridin-3-yl)-1-(cis-2-hydroxycyclohexyl)-4-oxo-1,4-dihydroquinoline-3-carboxylic acid]
[1]
  inhibition at 1 µM: 106%

## CCCn1cc(C(=O)NCCN(C)C)c(=O)c2ccc(-c3cnc(NC(=O)NCC)cc3-c3nc(C(F)(F)F)cs3)cc21 [Example 350, N-[2-(dimethylamino)ethyl]-7-{6-[(ethylcarbamoyl)amino]-4-[4-(trifluoromethyl)-1,3-thiazol-2-yl]pyridin-3-yl}-4-oxo-1-propyl-1,4-dihydroquinoline-3-carboxamide]
[1]
  inhibition at 1 µM: 96%
